The target in data set [1] is T1, Soluble recombinant human CD73 (Homo sapiens, UniProt P21589).
T1 sequence (P21589 27-549 limits assumed): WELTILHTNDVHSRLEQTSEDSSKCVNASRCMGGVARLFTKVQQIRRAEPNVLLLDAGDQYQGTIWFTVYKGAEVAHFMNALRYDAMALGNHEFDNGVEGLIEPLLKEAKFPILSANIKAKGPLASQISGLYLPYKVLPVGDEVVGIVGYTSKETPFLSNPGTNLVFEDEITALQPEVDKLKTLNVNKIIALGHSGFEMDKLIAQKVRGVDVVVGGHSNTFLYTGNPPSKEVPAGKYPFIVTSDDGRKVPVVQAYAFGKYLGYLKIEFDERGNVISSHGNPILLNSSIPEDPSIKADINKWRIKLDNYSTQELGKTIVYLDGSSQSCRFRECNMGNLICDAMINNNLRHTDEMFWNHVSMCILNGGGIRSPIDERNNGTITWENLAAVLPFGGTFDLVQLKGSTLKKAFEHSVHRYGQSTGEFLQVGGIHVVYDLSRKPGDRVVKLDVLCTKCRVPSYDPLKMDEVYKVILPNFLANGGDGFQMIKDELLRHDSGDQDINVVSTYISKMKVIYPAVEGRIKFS
Description: CD73 enzyme inhibition assay, soluble recombinant human CD73. The settings on record: soluble recombinant human CD73, Km 17 µM, substrate AMP (5 µM). The format is biochemical. The method, then:
Both compounds were evaluated for metabolic stability in mouse liver microsomes (MLM) and plasma protein binding (PPB) (Table 1).
The CD73 enzyme inhibition assay of recombinant soluble CD73, membrane-bound human CD73, soluble rat CD73 and mouse CD73 was performed as previously described.^[16,35^]

For data set [2], the target named is Human serum albumin (HSA) (Homo sapiens, UniProt P02768). Put plainly: Plasma protein binding (human serum albumin binding). It counts as in vitro ADME. The settings on record: human serum albumin (HSA), read-out: Plasma protein binding (PPB) (converted). The method, then: Human serum albumin (HSA) binding.
Chain of Human serum albumin (HSA) (P02768 25-609): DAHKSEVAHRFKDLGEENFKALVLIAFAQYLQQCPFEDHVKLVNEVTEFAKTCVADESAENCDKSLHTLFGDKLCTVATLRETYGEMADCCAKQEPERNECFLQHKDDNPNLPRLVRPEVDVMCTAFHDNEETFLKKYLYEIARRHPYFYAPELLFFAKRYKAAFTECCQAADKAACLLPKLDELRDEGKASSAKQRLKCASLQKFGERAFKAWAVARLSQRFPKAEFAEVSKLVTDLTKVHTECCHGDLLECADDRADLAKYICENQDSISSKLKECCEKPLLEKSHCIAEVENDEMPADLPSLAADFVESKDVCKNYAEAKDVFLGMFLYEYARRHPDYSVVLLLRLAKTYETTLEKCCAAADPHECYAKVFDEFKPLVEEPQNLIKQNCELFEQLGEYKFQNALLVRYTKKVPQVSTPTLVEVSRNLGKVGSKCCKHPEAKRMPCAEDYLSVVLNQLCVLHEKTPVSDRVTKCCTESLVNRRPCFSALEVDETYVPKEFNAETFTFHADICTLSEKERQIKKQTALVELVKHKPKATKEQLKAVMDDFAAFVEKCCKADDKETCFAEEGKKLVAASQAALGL
Plasma protein binding was determined following previously published procedure.^[38^]

Data set [3] in a line: logD7.4 determination of radiotracers (PBS/octan-1-ol). It counts as physicochemical. To be noted: octan-1-ol/PBS; PBS pH 7.4 / octan-1-ol, radiotracer. The method, then: The logD 7.4 values of both radiotracers were determined using a previously described method based on their distribution between phosphate‐buffered saline (PBS) and octan‐1‐ol.
Triazole radiotracers (~400 kBq) in PBS buffer (10 µL, pH 7.4) were added to PBS buffer (590 µL, pH 7.4) and octan-1-ol (600 µL). The two-layer mixture was shaken for 3 min on a vortex mixer at r.t. and centrifuged (200 g) for 5 min. The main part of the octanol layer (400 µL) was carefully collected and transferred to a new tube containing PBS buffer (400 µL, pH 7.4). The two-layer mixture was shaken again for 10 min and centrifuged for 5 min (200 g). Three samples were prepared, and two aliquots (á 100 µL) of both layers were measured in a gamma-counter 2480 Wizard2 (Perkin-Elmer, Waltham, USA). The partition coefficient was determined by dividing cpm (octanol) by cpm (PBS) and indicated as logD7.4 (exp.).

The target in data set [4] is T2, CD73/AMPase activity in human breast tumor tissues (Homo sapiens, UniProt P21589).
T2 construct: cryosections of breast tumor samples as well as sentinel lymph node samples were investigated; from tissue; host or cells: primary breast tumors and sentinel lymph nodes of two patients, 6 µm cryosections
T2 sequence (P21589 27-574): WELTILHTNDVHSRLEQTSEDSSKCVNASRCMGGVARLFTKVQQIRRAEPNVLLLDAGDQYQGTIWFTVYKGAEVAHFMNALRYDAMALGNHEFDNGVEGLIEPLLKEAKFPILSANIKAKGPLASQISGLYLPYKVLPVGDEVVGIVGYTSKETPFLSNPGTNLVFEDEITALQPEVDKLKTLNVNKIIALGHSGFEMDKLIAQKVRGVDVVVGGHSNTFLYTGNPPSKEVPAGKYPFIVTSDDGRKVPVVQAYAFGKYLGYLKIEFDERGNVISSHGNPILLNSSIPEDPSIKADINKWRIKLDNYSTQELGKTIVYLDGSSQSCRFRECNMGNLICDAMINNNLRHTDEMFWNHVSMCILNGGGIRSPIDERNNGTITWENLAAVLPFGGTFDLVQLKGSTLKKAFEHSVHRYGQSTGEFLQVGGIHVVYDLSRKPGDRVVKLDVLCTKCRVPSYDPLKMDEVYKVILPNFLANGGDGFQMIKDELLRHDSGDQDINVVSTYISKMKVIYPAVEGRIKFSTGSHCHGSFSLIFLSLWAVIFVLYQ
Description: In situ enzyme histochemistry of AMPase activity in breast tumor cryosections. The format is biochemical. The settings on record: 10–50 nM inhibitor, 400 µM AMP, tissue cryosections. On the procedure: Subsequent analysis of CD73‐mediated AMPase activities was performed by incubating tissue cryosections with AMP and CD73 inhibitors at different concentrations. Figure 2 depicts representative images of AMP‐specific staining in breast tumors from patient X (panel A) and patient Y (panel B), determined in the absence (control) and in the presence of 10 nM of the potent CD73 inhibitor 1.
FIGURE 3 Effects of CD73 inhibitors on AMPase activity in human breast tumor tissues. The effects of CD73 inhibitors on AMPase activity was determined in situ by incubating primary breast tumor samples from patient X (A) and patient Y (B) with 400 µM AMP and 1.5 mM Pb(NO3)2 in the absence (control) and the presence of the indicated concentrations of CD73 inhibitor. (C). Mean pixel intensities of brown staining due to the hydrolysis of AMP leading to Pb3(PO4)2 precipitation were quantified in the selected regions and expressed as arbitrary units (AU) (mean ± SEM; n = 2). Scale bars: 2 mm (A, B), and 500 µm (A, right insets).
For the localization of AMPase activities in human tumors, the lead nitrate-based enzyme histochemistry was employed. […] AMPase activity was determined by measuring AMP-specific brown staining intensities from the images using QuPath v.0.3.0 software. […] The average DAB intensity levels were measured as described earlier.^[39^] […]

The structures appear in SMILES notation.

What is called Ki is a dissociation constant, usually derived from enzyme kinetics or from competition with a known ligand. For orientation: logD means the decadic logarithm of the distribution of all forms, ionised or not, between an organic phase and buffer at a given pH. A high value points to a more lipophilic compound.

As to `Cn1c(=O)n([C@@H]2O[C@H](COP(=O)(O)CP(=O)(O)O)[C@@H](O)[C@H]2O)cc/c1=N/OCc1ccc(-c2cn(CCF)nn2)cc1` [compound 2, [((2R,3S,4R,5R)-5-{4-[({4-[1-(2-Fluoroethyl)-1H-1,2,3-triazol-4-yl]benzyl}oxy)-imino]-3-methyl-2-oxo-3,4-dihydropyrimidin-1(2H)-yl}-3,4-dihydroxytetrahydro-furan-2-yl)methoxy]-(phosphonomethyl)phosphonic acid], the Ki in data set [1] is 0.664 nM. Also, the fraction unbound in data set [2] is 0.34. Moreover, the logD in data set [3] was found to be 0.74 ± 0.3. In addition, the “Reduction of CD73/AMPase activity in the breast TME” value in data set [4] is 60%–70.

Source of the values: PMC13077603, “Fluorine‐18‐Labeled Nucleotide Analogs Targeting Ecto‐5'‐Nucleotidase (CD73) for Positron Emission Tomography Imaging of Solid Tumors” (Angewandte Chemie (International Ed. in English), 2026).
